Test results published in patent US12168781B2, “Production method for T cells or NK cells, medium for culturing T cells or NK cells, method for culturing T cells or NK cells, method for maintaining undifferentiated state of undifferentiated T cells, and growth-accelerating agent for T cells or NK cells” (KIRIN HOLDINGS KABUSHIKI KAISHA, priority 2018, dated 2024).

Legend:
Format in all cases: cell-based, human
[1] = test system: T-iPS-T cells; test: Feeder-free culture of T-iPS-T cells, FACS count of PI-negative cells and CD45RA(+)CCR7(+) cells; settings: 6 days; for Number of CD45RA+CCR7+ cells: DMSO 3891 ± 3170; for Cell number: DMSO 16096 ± 10785
Procedure: After washing, the cells were resuspended in the staining solution containing PI. Half the amount was analyzed using a BD LSR Fortessa cytometer (BD Bioscience) equipped with HTS, and all cells were recorded.
The concentration dependence of the bisbenzylisoquinoline alkaloid represented by the formula (X-1) or the formula (X-2) in feeder-free proliferation of T-iPS-T cells was examined. T-iPS-T cells were cultured using alpha-MEM medium supplemented with 15% FBS, 1% PSG, PAA (50 μg/mL), ITS-G, IL-7 (5 ng/mL), IL-12 (50 ng/mL), IL-15 (5 ng/mL), IL-18 (50 ng/mL), IL-21 (20 ng/mL), and z-VAD-fmk (10 μM).
The effect on culturing of T-iPS-T cells was evaluated by comparing a known compound that contributes to the proliferation of memory T cells with berbamine. […] DMSO (0.1%) that is a solvent for the compound was used as a control.
The number of events of PI-negative cells and the number of events of CD45RA(+)CCR7(+) cells in the PI-negative cells, which were analyzed by FlowJo 9, were used as data. Note that in a statistical analysis, a Student's t-test was used (*: p<0.05).
The effect of the combined use of berbamine with a MAPK cascade inhibitor on the proliferation of memory T cells was examined. […] The final concentration of each compound was set to 1 μM. DMSO (0.1%) that is a solvent for the compound was used as a control.
The number of events (#Cells) of CD45RA(+)CCR7(+) cells in the PI-negative cell population analyzed by FlowJo 9 was plotted and graphed. Note that in a statistical analysis, a Student's t-test was used (*: p<0.05, **P<0.01, ***P<0.001, ****P<0.0001).

[2] = test system: stem cell memory T cells; test: Proliferation of sorted stem cell memory T cells, trypan blue count; settings: 1 μM, stem cell memory T cells, 6, 9, 12 and 14 days, FIG. 18C
Description: NPL 4 reports that hierarchy exists in T cells (FIG. 18A). In this Example, a fraction in which berbamine acts in T cells was verified. As a method therefor, PBMCs (CTL, Inc.) derived from a healthy subject was washed with a staining solution (PBS containing 2% FBS), and then stained with CCR7-APC (BioLegend, 353214), CD45RA-BV510 (BioLegend, 304142), CD45RO-APC-Cy7 (BioLegend, 307228), CD95-PC-Cy7 (BioLegend, 305622), CD8β-PE (Beckman, IM2217U), and CD4-BV421 (BioLegend, 317434).
After washing, the cells were resuspended in the staining solution containing PI, and by using BD AriaII Cell Sorter (BD Bioscience), in the CD8β(+) cells, CCR7(+)CD45RA(+)CD95(−)CD45RO(−) was sorted as naive T cells, CCR7(+)CD45RA(+)CD95(+)CD45RO(+) was sorted as stem cell memory T cells, CCR7(+)CD45RA(−)CD45RO(+) was sorted as central memory T cells, and CCR7(−) CD45RA(−)CD45RO(+) was sorted as effector memory T cells.
The respective cells (about 3,000 cells/well) were seeded, and berbamine (BBM) at 1 μM or MilliQ water that is a solvent for the compound as a control was added thereto, and the cells were stimulated with CD3/CD28 Dynabeads (about 9,000 beads/well). The cells were cultured using the same culture medium as in Example 6.
After 6, 9, 12, and 14 days of culturing, the number of viable cells was counted by a trypan blue method. In a statistical analysis, a Student's t-test was used (*: p<0.05).

[3] = test system: primary T cells (CD4 T, CD8 T cells); test: Proliferation of primary T cells purified from PBMCs; settings: 1 μM, 6 days, restimulated, further 4 days, FIG. 16
Procedure: The effect of berbamine on proliferation of primary T cells (CD4 T, CD8 T cells) was examined. As a method therefor, CD3 T cells were purified from PBMCs (CTL, Inc.) using Pan T Cell Isolation Kit, human (Miltenyi, 130-096-535). The purified CD3 T cells (20,000 cells/well) were seeded, and berbamine (BBM) at 1 μM or MilliQ water that is a solvent for the compound as a control was added thereto, and the cells were stimulated with CD3/CD28 Dynabeads (60,000 beads/well).
The cells were cultured for 6 days in the same culture medium as in Example 6 and restimulated. After the cells were further cultured for 4 days, the number of viable cells was counted by a trypan blue method and the ratios of CD4-positive cells and CD8-positive cells were analyzed by FACS. […]
After washing, the cells were resuspended in 200 μL/well of the staining solution containing PI. The suspension in an amount of 100 μL/well was analyzed using a BD LSR Fortessa cytometer (BD Bioscience) equipped with HTS, and all cells were recorded.
The value obtained by multiplying the positive rate of CD8(+) or CD4(+) cells in the PI-negative cell population analyzed by FlowJo 9 by the number of viable cells was defined as the number of CD8-positive cells or the number of CD4-positive cells. […]

## COc1cc2c3cc1Oc1c(OC)c(OC)cc4c1[C@@H](Cc1ccc(O)c(c1)Oc1ccc(cc1)C[C@@H]3N(C)CC2)N(C)CC4 [berbamine]
[1]; 1 nM
  Number of CD45RA+CCR7+ cells: 5761 ± 4045
  Cell number: 18397 ± 10723
[1]; 3 nM
  Number of CD45RA+CCR7+ cells: 5667 ± 4255
  Cell number: 19540 ± 11587
[1]; 10 nM
  Number of CD45RA+CCR7+ cells: 6186 ± 3617
  Cell number: 24672 ± 10675 **
[1]; 30 nM
  Number of CD45RA+CCR7+ cells: 7186 ± 4180 *
  Cell number: 30885 ± 12249 **
[1]; 100 nM
  Number of CD45RA+CCR7+ cells: 10224 ± 3801 **
  Cell number: 48026 ± 6597 **
[1]; 300 nM
  Number of CD45RA+CCR7+ cells: 12034 ± 6515 *
  Cell number: 54888 ± 5691 **
[1]; 1 μM, FIG. 7
  number of CD45RA(+)CCR7(+) cells, rank among the 266 compounds: highest number of CD45RA(+)CCR7(+) cells
[1]; 1 μM, FIG. 12
  proliferation of T-iPS-T cells (PI-negative cells and CD45RA(+)CCR7(+) cells) vs DMSO: significant proliferation effect
[1]; 1 μM
  Number of CD45RA+CCR7+ cells: 12957 ± 9483
  Cell number: 43432 ± 23926
[1]; 3 μM
  Number of CD45RA+CCR7+ cells: 13552 ± 10355
  Cell number: 43656 ± 29882
[1]; 10 μM
  Number of CD45RA+CCR7+ cells: 5650 ± 8552
  Cell number: 20559 ± 34130
[1]; each compound 1 μM, FIG. 13
  number of CD45RA(+)CCR7(+) cells compared with DMSO: significant cell proliferation
[2]
  number of viable cells compared with MilliQ water: significant enhancement of cell proliferation
[3]
  number of CD4-positive cells compared with MilliQ water: significant enhancement of cell proliferation
  number of CD8-positive cells compared with MilliQ water: significant enhancement of cell proliferation
